Consider 26 compounds from US10870630B2, “Substituted bicyclic heteroaryl allosteric modulators of nicotinic acetylcholine receptors” (Merck Sharp & Dohme Corp., priority 2016, dated 2020).

The test addresses human α7 nicotinic acetylcholine receptor (α7 nAChR) (Homo sapiens, UniProt P36544). Nature of the test: Automated patch-clamp electrophysiology functional assay (Assay A). Format: cell-based. The conditions noted are these: HEK cell line stably expressing human RIC-3 and human α7, IonFlux HT whole-cell population patch, 40 μM acetylcholine. Here is the method:
The α7 nAChR positive allosteric modulator (PAM) activity of the present compounds may be tested using assays known in the art. The α7 nAChR PAMs described herein have activities in an automated patch-clamp electrophysiology functional assay as described in the examples. The assay was performed using the IonFlux HT in a whole-cell, population patch configuration. See Golden et al. Assay Drug Dev. Technol. (2011) 9:608-619. The compounds were assessed for their ability to modulate the function of the human […] nAChR stably expressed in a HEK cell line both in the presence, and in the absence of the natural 07 agonist acetylcholine. By performing a series of such measurements at different concentrations, the effective concentration of the α7 nAChR PAMs (EC50) was determined. See Spencer et al. Assay Drug Dev. Technol. (2012) 10:313-324.
Automated patch-clamp electrophysiology was performed using the IonFlux HT (Fluxion Biosciences Inc., San Francisco, Calif.) in the whole-cell, population patch configuration. Test compounds were assessed for their ability to modulate the function of the α7 nicotinic acetylcholine receptor both in the presence, and in the absence of the natural α7 agonist acetylcholine. A HEK cell line stably expressing both human RIC-3 and human α7 (PrecisION hnAChR α7/RIC-3, Eurofins Pharma, St. Charles, Mo.) was cultured in 175 cm^2 triple-layer tissue culture flasks to no more than 90% confluency in DMEM/F-12 growth media supplemented with 10% heat-inactivated fetal bovine serum, 1% non-essential amino acids, 0.625 μg/mL Puromycin, and 400 μg/mL Geneticin. Immediately prior to assay, cells were detached by first aspirating growth media, rinsing with Dulbecco's phosphate buffered saline, and then adding 10 mL of Accutase (Innovative Cell Technologies, San Diego, Calif.) to the flask and then incubating at 37° C. for 5 minutes. Detached cells were then recovered by the addition of 40 mL of CHO-serum-free media supplemented with 25 mM HEPES, and rocked gently in a 50 mL conical tube for 20 minutes prior to patch-clamp assay. After recovery, cells were pelleted by centrifugation at 1,000 RPM for 1 minute in a compact bench top centrifuge; recovery media was aspirated and cells were resuspended in external recording solution (150 mM NaCl, 5 mM KCl, 2 mM CaCl2, 1 mM MgCl2, 10 mM HEPES, 12 mM dextrose) to a density of 5.0×10^6 cells/mL. The cell suspension was added to the cell inlet wells on an IonFlux HT population patch plate which had previously been rinsed and primed with deionized H2O. Test compounds were serially diluted in DMSO and then resuspended to the final test concentration in external recording solution, with, or without 40 μM acetylcholine added to the external recording solution; test compounds were then transferred to the IonFlux HT population patch plate. Internal recording solution (110 mM TrisPO4, 28 mM TrisBase, 0.1 mM CaCl2, 2 mM MgCl2, 11 mM EGTA, 4 mM MgATP) was added to the internal recording solution inlet wells on the IonFlux HT patch plate previously loaded with cells and test compounds, and the plate loaded into the IonFlux HT instrument. A protocol was executed on the IonFlux HT to trap the cells, break into the cells, and establish the whole-cell recording configuration; cells were voltage-clamped at a holding potential of −60 mV for the duration of the experiment, all experiments were conducted at room temperature, and the IonFlux HT injection pressure was 8 psi for solution applications. Upon establishing the whole-cell configuration, external recording solution was perfused into the recording chambers for 120 seconds and then 40 μM acetylcholine was applied for 1 second and immediately washed off with external recording solution for 60 seconds. The 40 μM acetylcholine-evoked α7 current served as the current response to which subsequent test compound effects, in the presence, or in the absence of 40 μM acetylcholine would be quantified relative to. […]
(In patch-clamp work, channel activity is measured electrically.)

Molecules are shown by their SMILES. Where two headings read alike, the source gives them in different places.

Sequence of human α7 nicotinic acetylcholine receptor (α7 nAChR) (P36544 23-502): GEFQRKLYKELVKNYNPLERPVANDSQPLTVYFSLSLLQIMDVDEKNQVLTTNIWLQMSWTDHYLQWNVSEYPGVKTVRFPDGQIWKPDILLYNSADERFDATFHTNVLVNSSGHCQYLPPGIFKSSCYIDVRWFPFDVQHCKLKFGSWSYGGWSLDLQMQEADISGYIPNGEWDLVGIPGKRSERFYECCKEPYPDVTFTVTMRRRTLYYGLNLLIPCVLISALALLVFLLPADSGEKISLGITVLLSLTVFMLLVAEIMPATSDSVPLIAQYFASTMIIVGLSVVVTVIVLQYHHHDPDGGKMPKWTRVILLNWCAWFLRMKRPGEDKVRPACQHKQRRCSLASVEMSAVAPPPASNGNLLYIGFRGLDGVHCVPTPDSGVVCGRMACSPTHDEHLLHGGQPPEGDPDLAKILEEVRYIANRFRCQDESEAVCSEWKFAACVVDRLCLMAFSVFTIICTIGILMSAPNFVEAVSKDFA

`CC1(C)[C@H](c2ccc(S(N)(=O)=O)cc2)[C@H]1c1ncc2ccccc2n1` [Example D1, 4-[(1R,3R)-2,2-Dimethyl-3-quinazolin-2-yl-cyclopropyl]benzenesulfonamide]: the EC50 was 7.2 µM (read-out: α7 nAChR EC50) and 5 to 50 µM (read-out: α7 nAChR Potency).

`CC1(C)[C@H](c2ccc(S(N)(=O)=O)cc2)[C@H]1c1nc2ccc(Cl)cc2o1` [Example B5, 4-[(1R,3R)-3-(6-Chloro-1,3-benzoxazol-2-yl)-2,2-dimethyl-cyclopropyl]benzenesulfonamide]: the EC50 (read-out: α7 nAChR Potency) is 0.1 to 0.5 µM.

In the case of `CC1(C)[C@H](c2ccc(S(N)(=O)=O)cc2)[C@H]1c1nc2c(F)cc(F)cc2o1` [Example B1, 4-[(1R,3R)-3-(4,6-Difluoro-1,3-benzoxazol-2-yl)-2,2-dimethyl-cyclopropyl]benzenesulfonamide], the EC50 (read-out: α7 nAChR Potency) is 0.1 to 0.5 µM. For `NS(=O)(=O)c1ccc(C2CC2c2ccc3cc(C(F)(F)F)nnc3c2)cc1` (racemic) [Example E5, 4-[2-[3-(Trifluoromethyl)cinnolin-7-yl]cyclopropyl]benzenesulfonamide], the EC50 (read-out: α7 nAChR Potency) was 0.5 to 5 µM. As for `CC1(C)[C@@H](c2ccc(S(N)(=O)=O)cc2)[C@@H]1c1ncc2c(F)cccc2n1` [Example C2, 4-[(1S,3S)-3-(5-Fluoroquinazolin-2-yl)-2,2-dimethyl-cyclopropyl]benzenesulfonamide], the EC50 (read-out: α7 nAChR Potency) lay in the range of 0.5 to 5 µM.

Regarding `NS(=O)(=O)c1ccc([C@H]2[C@H](c3nc4c(o3)CCCC4)C2(F)F)cc1` [Example C4, 4-[(1R,3R)-2,2-Difluoro-3-(4,5,6,7-tetrahydro-1,3-benzoxazol-2-yl)cyclopropyl]benzenesulfonamide], the EC50 (read-out: α7 nAChR Potency) was in the range of 0.5 to 5 µM. Take `NS(=O)(=O)c1ccc([C@@H]2C[C@H]2c2nc3ccccc3o2)cc1` [Example 5, 4-[(1R,2R)-2-(1,3-Benzoxazol-2-yl)cyclopropyl]benzenesulfonamide]: the EC50 reads like this: (read-out: α7 nAChR EC50) 0.16 µM; (read-out: α7 nAChR Potency) 0.1 to 0.5 µM.

In the case of `NS(=O)(=O)c1ccc(C2CC2c2ccc3nccnc3c2)cc1` (racemic) [Example E4, 4-(2-Quinoxalin-6-ylcyclopropyl)benzenesulfonamide], where the note is “read-out: α7 nAChR Potency”, the EC50 fell in the range of 0.5 to 5 µM. For `CC1(C)[C@@H](c2ccc(S(N)(=O)=O)cc2)[C@@H]1c1nc2c(F)cc(F)cc2s1` [Example A3, 4-[(1S,3S)-3-(4,6-Difluoro-1,3-benzothiazol-2-yl)-2,2-dimethyl-cyclopropyl]benzenesulfonamide], the EC50 is 0.96 µM (read-out: α7 nAChR EC50) and 0.5 to 5 µM (read-out: α7 nAChR Potency). As for `NS(=O)(=O)c1ccc(C2CC2c2cc3ccncc3s2)cc1` (racemic) [Example E7, 4-(2-Thieno[2,3-c]pyridin-2-ylcyclopropyl)benzenesulfonamide], where the note is “read-out: α7 nAChR Potency”, the EC50 lay within 0.5 to 5 µM. In the case of `CC1(C)OC([C@H]2[C@H](c3ccc(S(N)(=O)=O)cc3)C2(F)F)=Nc2ccccc21` [Example 13, 4-[(1R,3R)-3-(4,4-Dimethyl-4H-3,1-benzoxazin-2-yl)-2,2-difluorocyclopropyl]benzenesulfonamide], the EC50 is 1.8 µM (read-out: α7 nAChR EC50) and 0.5 to 5 µM (read-out: α7 nAChR Potency).

`CC1(C)[C@H](c2ccc(S(N)(=O)=O)cc2)[C@H]1c1nc2c(o1)CCC2` [Example 11, 4-[(1R,3R)-3-(5,6-Dihydro-4H-cyclopenta[d][1,3]oxazol-2-yl)-2,2-dimethylcyclopropyl]benzenesulfonamide]: the EC50 is, setting by setting: (read-out: α7 nAChR EC50) 2 µM; (read-out: α7 nAChR Potency) 0.5 to 5 µM. `Cn1ncc2cc(C3CC3c3ccc(S(N)(=O)=O)cc3)ccc21` (racemic) [Example E9, 4-[2-(1-Methylindazol-5-yl)cyclopropyl]benzenesulfonamide]: the EC50 reads like this: (read-out: α7 nAChR EC50) 2.8 µM; (read-out: α7 nAChR Potency) 0.5 to 5 µM. As to `CC1(C)[C@@H](c2ccc(S(N)(=O)=O)cc2)[C@@H]1c1nc2cc(Cl)ccc2o1` [Example A6, 4-[(1S,3S)-3-(5-Chloro-1,3-benzoxazol-2-yl)-2,2-dimethyl-cyclopropyl]benzenesulfonamide], the EC50 was 0.43 µM (read-out: α7 nAChR EC50) and 0.1 to 0.5 µM (read-out: α7 nAChR Potency). As for `CC1(C)[C@@H](c2ccc(S(N)(=O)=O)cc2)[C@@H]1c1nc2ccc(F)cc2s1` [Example 10, 4-((1S,3S)-3-(6-Fluorobenzo[d]thiazol-2-yl)-2,2-dimethylcyclopropyl)benzenesulfonamide], the EC50 by setting is: (read-out: α7 nAChR EC50) 0.45 µM; (read-out: α7 nAChR Potency) 0.1 to 0.5 µM. For `NS(=O)(=O)c1ccc([C@@H]2[C@@H](c3nc4ccccc4o3)C2(F)F)cc1` [Example B11, 4-[(1S,3S)-3-(1,3-Benzoxazol-2-yl)-2,2-difluoro-cyclopropyl]benzenesulfonamide], in that order: 0.43 µM and 0.1 to 0.5 µM. As to `NS(=O)(=O)c1ccc(C2CC2c2ccc3cc(Cl)ncc3c2)cc1` (racemic) [Example E6, 4-[2-(3-Chloro-7-isoquinolyl)cyclopropyl]benzenesulfonamide], the EC50 was 1.2 µM (read-out: α7 nAChR EC50) and 0.5 to 5 µM (read-out: α7 nAChR Potency).

Turning to `CC1(C)[C@H](c2ccc(S(N)(=O)=O)cc2)[C@H]1c1nc2ccccc2o1` [Example 1, 4-[(1R,3R)-3-(1,3-Benzoxazol-2-yl)-2,2-dimethylcyclopropyl]benzenesulfonamide], the EC50 (read-out: α7 nAChR EC50) worked out at 0.62 µM and the EC50 (read-out: α7 nAChR Potency) is 0.5 to 5 µM. Taken in the same sequence, the figures for `Cc1nc2c(C3CC3c3ccc(S(N)(=O)=O)cc3)cccc2s1` (racemic) [Example E1, 4-[2-(2-Methyl-1,3-benzothiazol-4-yl)cyclopropyl]benzenesulfonamide] were 0.41 µM and 0.1 to 0.5 µM. As for `CC1(C)[C@H](c2ccc(S(N)(=O)=O)cc2)[C@H]1c1nc2cccnc2o1` [Example 6, 4-[(1R,3R)-2,2-Dimethyl-3-([1,3]oxazolo[5,4-b]pyridin-2-yl)cyclopropyl]benzenesulfonamide], the EC50 was 3.4 µM (read-out: α7 nAChR EC50) and 0.5 to 5 µM (read-out: α7 nAChR Potency). Regarding `CC1(C)[C@H](c2ccc(S(N)(=O)=O)cc2)[C@H]1c1nc2c(o1)CCCC2` [Example D3, 4-[(1R,3R)-2,2-Dimethyl-3-(4,5,6,7-tetrahydro-1,3-benzoxazol-2-yl)cyclopropyl]benzenesulfonamide], where the note is “read-out: α7 nAChR Potency”, the EC50 fell in the range of 0.5 to 5 µM. Regarding `CC1(C)[C@@H](c2ccc(S(N)(=O)=O)cc2)[C@@H]1c1ncc2ccccc2n1` [Example C1, 4-[(1S,3S)-2,2-Dimethyl-3-quinazolin-2-yl-cyclopropyl]benzenesulfonamide], the EC50 is, setting by setting: (read-out: α7 nAChR EC50) 1.4 µM; (read-out: α7 nAChR Potency) 0.5 to 5 µM. Take `CC1(C)[C@H](c2ccc(S(N)(=O)=O)cc2)[C@H]1c1nc2ccc(F)cc2s1` [Example B9, 4-[(1R,3R)-3-(6-Fluoro-1,3-benzothiazol-2-yl)-2,2-dimethyl-cyclopropyl]benzenesulfonamide]: the EC50 is 0.17 µM (read-out: α7 nAChR EC50) and 0.1 to 0.5 µM (read-out: α7 nAChR Potency).

Take `NS(=O)(=O)c1ccc([C@@H]2C[C@H]2c2cnc3ccccc3n2)cc1` (relative stereo) [Example 7, 4-[trans-2-(Quinoxalin-2-yl)cyclopropyl]benzenesulfonamide]: the EC50 (read-out: α7 nAChR EC50) was found to be 1.3 µM and the EC50 (read-out: α7 nAChR Potency) lay within 0.5 to 5 µM. Consider `COc1cccc2oc([C@H]3[C@H](c4ccc(S(N)(=O)=O)cc4)C3(C)C)nc12` [Example A1, 4-[(1S,3S)-3-(4-Methoxy-1,3-benzoxazol-2-yl)-2,2-dimethyl-cyclopropyl]benzenesulfonamide], for which the EC50 was 0.83 µM (read-out: α7 nAChR EC50) and 0.5 to 5 µM (read-out: α7 nAChR Potency). Consider `NS(=O)(=O)c1ccc([C@H]2[C@H](c3nc4ccccc4[nH]3)C2(F)F)cc1` [Example A9, 4-[(1R,3R)-3-(1H-Benzimidazol-2-yl)-2,2-difluorocyclopropyl]benzenesulfonamide], for which, under “read-out: α7 nAChR Potency”, the EC50 lay within 0.5 to 5 µM.
